Values of other authors in patent US11510895B2, “Compositions and formulations including cabazitaxel and human serum albumin” (Zhuhai Beihai Biotech Co., Ltd., priority 2016, dated 2022).

Key:
human serum proteins = conditions: in vitro
human serum albumin = human serum albumin (Homo sapiens, UniProt P02768); conditions: in vitro
human serum albumin, sequence (P02768 25-609): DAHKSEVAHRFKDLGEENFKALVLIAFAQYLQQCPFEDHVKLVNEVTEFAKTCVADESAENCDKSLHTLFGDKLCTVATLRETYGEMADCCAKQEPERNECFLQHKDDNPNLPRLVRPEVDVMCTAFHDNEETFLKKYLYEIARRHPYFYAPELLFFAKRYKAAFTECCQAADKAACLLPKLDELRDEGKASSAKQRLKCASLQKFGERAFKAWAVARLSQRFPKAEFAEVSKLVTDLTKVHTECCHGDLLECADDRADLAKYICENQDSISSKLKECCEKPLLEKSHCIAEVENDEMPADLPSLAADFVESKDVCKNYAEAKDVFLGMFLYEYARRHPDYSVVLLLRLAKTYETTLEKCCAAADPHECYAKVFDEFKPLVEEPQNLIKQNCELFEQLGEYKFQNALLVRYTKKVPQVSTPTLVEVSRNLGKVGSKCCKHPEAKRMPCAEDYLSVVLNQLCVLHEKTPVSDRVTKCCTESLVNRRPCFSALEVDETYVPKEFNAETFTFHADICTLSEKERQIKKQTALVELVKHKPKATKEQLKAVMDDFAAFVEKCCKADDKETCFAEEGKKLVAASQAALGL

solubility in alcohol: soluble
solubility in water: practically insoluble
saturability of the binding to human serum proteins (human serum proteins): not saturable up to 50,000
bound to human serum albumin (human serum albumin): 82%
Compound: CO[C@H]1C(=O)[C@]2(C)[C@@H](OC)C[C@H]3OC[C@@]3(OC(C)=O)[C@H]2[C@H](OC(=O)c2ccccc2)[C@]2(O)C[C@H](OC(=O)[C@H](O)[C@@H](NC(=O)OC(C)(C)C)c3ccccc3)C(C)=C1C2(C)C [cabazitaxel]
